The source of these data is PMC4841555, “Optimization of the All-D Peptide D3 for Aβ Oligomer Elimination” (PLoS ONE, 2016).

Non-standard residues stand in square brackets, D forms with d. Residues, ends and D or L forms follow the SMILES beside them.

For one test, the target named is T1, Aβ(1–42) oligomers (Homo sapiens, UniProt P05067).
T1 construct: Aβ(1–42), N-terminally biotinylated Aβ(1–42) and FITC-Aβ(1–42) were purchased from Bachem; purchased Bachem (Heidelberg, Germany)
Kind of test: QIAD assay (Aβ oligomer elimination). The class given is biochemical. The note with it: 20 μM DB3, 80 μM Aβ(1–42) preincubated 4.5 h, 40 min with peptide, density gradient centrifugation, RP-HPLC, vs Aβ only control, triplicate. The procedure: The quantitative determination of interference with Aβ(1–42) aggregate size distribution (QIAD) was performed as described before. In brief, 80 μM Aβ(1–42) was incubated in 10 mM sodium phosphate buffer, pH 7.4 for 4.5 h at 22°C with 600 rpm agitation. Aβ(1–42) aggregation was continued for an additional 40 min with or without DB peptide. The obtained partial size distribution was analyzed by applying density gradient centrifugation. 100 μl of the incubated sample was placed on top of a gradient with 5 to 50% iodixanol (Optiprep, Axis-shield, Oslo, Norway) and separated at 259.000 x g for 3 h at 4°C using an ultracentrifuge (Optima MAX-XP, Beckman Coulter, Brea, USA). Fourteen fractions of 140 μl were taken from top to bottom. […] For quantification of the Aβ(1–42) amount in each fraction, reversed-phase high performance liquid chromatography (RP-HPLC) was performed using a Zorbax SB-300 C8 column (Agilent, Böblingen, Germany) connected to an Agilent 1260 Infinity system using 30% (v/v) acetonitrile with 0.1% (v/v) trifluoroacetic acid (TFA) as the mobile phase with a flow of 1 ml/min and a column temperature of 80°C. […] The UV absorption at 214 nm was measured. For quantification of the Aβ(1–42) amount, the area under the peak representing Aβ(1–42) was calculated and the molar concentration was determined using a calibration curve. […]

A further test has as its target T2, Aβ(1–42) monomers (Homo sapiens, UniProt P05067).
T2 construct: N-terminally biotinylated Aβ(1–42) monomers were immobilized on streptavidin biosensors; purchased Bachem (Heidelberg, Germany)
Kind of test: Biolayer interferometry (BLI) KD determination. The class given is binding. The settings on record: N-terminally biotinylated Aβ(1–42) immobilised on streptavidin biosensors, 20 mM sodium phosphate pH 7.4, steady state, Langmuir 1:1 model, mean ± SD of triplicate. The procedure: BLI experiments were performed using an Octet RED96 instrument (fortéBIO, PALL Life Science, Menlo Park, USA). N-terminally biotinylated Aβ(1–42) was dissolved in HFIP, lyophilized and dissolved in 2 mM aqueous sodium hydroxide (1 mg/ml) in order to destroy any pre-existing aggregates. The Aβ(1–42) solution was neutralized by dilution in running buffer (20 mM sodium phosphate buffer, pH 7.4) to a final concentration of 20 μg/ml and directly immobilized on Super Streptavidin biosensors (SSA) (fortéBIO, PALL Life Science, Menlo Park, USA) to a final depth of 3 nm. Ligand biosensors and reference biosensors were quenched with 20 μg/ml biotin for 7 min.
For KD determinations, the binding of a dilution series of DB3 (200, 100, 50, 25, 12.5, 6.25, 3.125 μM) or DBDB3 (20, 10, 5, 2.5, 1.25, 0.625, 0.3125 μM) was detected in parallel to the ligand biosensors and reference biosensors. A separate buffer cycle was used for double referencing. […]
Fig 4 KD determination of DB3 and DB3DB3 to monomeric Aβ using biolayer interferometry (BLI). N-terminally biotinylated Aβ(1–42) monomers were immobilized on streptavidin biosensors and the binding of DB3 and DB3DB3 was detected. Representative double referenced sensorgrams of a dilution series of DB3 (A) and DB3DB3 (B) are shown, including the equilibrium dissociation constants (KD) as means ± SD of data recorded in triplicate. […]
Background: In BLI a coated tip is dipped into the sample, and binding shifts an interference pattern.

T1 sequence (P05067 672-713 limits assumed): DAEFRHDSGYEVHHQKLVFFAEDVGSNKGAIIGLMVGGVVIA
T2 sequence (P05067 672-713 limits assumed): as above

As for `CC[C@@H](C)[C@@H](NC(=O)[C@H]1CCCN1C(=O)[C@H](N)CCCNC(=N)N)C(=O)N[C@@H](C(=O)N[C@H](CCCNC(=N)N)C(=O)N[C@H](CC(C)C)C(=O)N[C@H](CCCNC(=N)N)C(=O)N[C@@H](C(=O)N[C@H](Cc1c[nH]cn1)C(=O)N[C@H](CCC(N)=O)C(=O)N[C@H](CC(N)=O)C(=O)N[C@H](CCCNC(=N)N)C(N)=O)[C@H](C)O)[C@H](C)O` [DB3] (H-[dR][dP][dI][dT][dR][dL][dR][dT][dH][dQ][dN][dR]-NH2), the “reduction of the amount of Aβ oligomers” value at Aβ(1–42) oligomers is reported as ~ 27%. Further, the Kd – broadly, a measure of binding affinity in units of concentration – at Aβ(1–42) monomers was found to be 74.7 µM.
